Results taken from PubChem BioAssay (NCI).
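Values below derive from 48-hour exposures of cells grown in 96-well plates, with endpoints linearly interpolated between the two concentrations bracketing the appropriate inhibition level. GI50 marks 50% less growth. At the TGI there is no net growth.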

Experiments:
Experiment in all cases: NCI tumour cell line growth inhibition, 48 h
MDA-MB-468 breast = system: MDA-MB-468 breast
UACC-257 melanoma = system: UACC-257 melanoma
HCT-15 colon = system: HCT-15 colon
U251 CNS = system: U251 CNS
SF-295 CNS = system: SF-295 CNS
NCI-H460 lung = system: NCI-H460 lung
TK-10 renal = system: TK-10 renal
786-0 renal = system: 786-0 renal
MCF7 breast = system: MCF7 breast
SR leukemia = system: SR leukemia
SK-MEL-28 melanoma = system: SK-MEL-28 melanoma
HCT-116 colon = system: HCT-116 colon
HT29 colon = system: HT29 colon
LOX IMVI melanoma = system: LOX IMVI melanoma
NCI-H522 lung = system: NCI-H522 lung
EKVX NSCLC = system: EKVX NSCLC
SF-268 CNS = system: SF-268 CNS
HL-60(TB) leukemia = system: HL-60(TB) leukemia
UACC-62 melanoma = system: UACC-62 melanoma
SF-539 CNS = system: SF-539 CNS
KM12 colon = system: KM12 colon
NCI/ADR-RES ovarian = system: NCI/ADR-RES ovarian
COLO 205 colon = system: COLO 205 colon
OVCAR-4 ovarian = system: OVCAR-4 ovarian
K-562 leukemia = system: K-562 leukemia
HCC-2998 colon = system: HCC-2998 colon
NCI-H23 lung = system: NCI-H23 lung
SN12C renal = system: SN12C renal
OVCAR-3 ovarian = system: OVCAR-3 ovarian
CAKI-1 renal = system: CAKI-1 renal
BT-549 breast = system: BT-549 breast
MALME-3M melanoma = system: MALME-3M melanoma
SK-OV-3 ovarian = system: SK-OV-3 ovarian
HOP-92 NSCLC = system: HOP-92 NSCLC
A498 renal = system: A498 renal
NCI-H226 lung = system: NCI-H226 lung
OVCAR-8 ovarian = system: OVCAR-8 ovarian
SW-620 colon = system: SW-620 colon
M14 melanoma = system: M14 melanoma
SK-MEL-5 melanoma = system: SK-MEL-5 melanoma
MDA-MB-435 = system: MDA-MB-435
HS 578T breast = system: HS 578T breast
A549 NSCLC = system: A549 NSCLC
PC-3 prostate = system: PC-3 prostate
OVCAR-5 ovarian = system: OVCAR-5 ovarian
T-47D breast = system: T-47D breast
RXF 393 renal = system: RXF 393 renal
RPMI-8226 leukemia = system: RPMI-8226 leukemia
CCRF-CEM leukemia = system: CCRF-CEM leukemia
DU-145 prostate = system: DU-145 prostate
IGROV1 ovarian = system: IGROV1 ovarian
SNB-19 CNS = system: SNB-19 CNS
MOLT-4 leukemia = system: MOLT-4 leukemia
HOP-62 NSCLC = system: HOP-62 NSCLC
ACHN renal = system: ACHN renal

Work on [Cl][Hg][c]1ccc2ccccc2c1 yielded a GI50 (MDA-MB-468 breast) of 1.46 µM and a TGI (MDA-MB-468 breast) of 2.84 µM.
With Cn1cc(C2=C(c3cc[nH]c3)C(=O)NC2=O)c2ccccc21 the GI50 (MDA-MB-468 breast) was 11.9 µM and the TGI (MDA-MB-468 breast) was greater than 25 µM.
With Cc1nc2c(O)c3c(c(O)c2nc1C)C1C=CC3CC1 the GI50 (MDA-MB-468 breast) was 0.559 µM and the TGI (MDA-MB-468 breast) was 1.97 µM.
In the case of CC(C)c1[nH]nc2c(NCc3ccc(-c4ccccn4)cc3)nc(SCCN(C)C)nc12, the GI50 (MDA-MB-468 breast) is reported as less than 0.0129 µM and the TGI (MDA-MB-468 breast) is reported as less than 0.0238 µM.
Work on COc1ccc2c(CCCc3ccc(Cl)cc3Cl)c3[n+](cc2c1OC)CCc1cc2c(cc1-3)OCO2 yielded a GI50 (MDA-MB-468 breast) of 0.195 µM and a TGI (MDA-MB-468 breast) of 0.894 µM.
Work on O=C(N/N=C/c1cc(Cl)ccc1O)c1ccccc1Nc1ccnc(C(F)(F)F)c1 yielded a GI50 (MDA-MB-468 breast) of 0.265 µM and a TGI (MDA-MB-468 breast) of 2.05 µM.
CC(C)(O)CCc1cccc(C(=O)c2cnn(-c3ccc(F)cc3)c2N)c1 was tested, and the GI50 (MDA-MB-468 breast) was 13.2 µM and the TGI (MDA-MB-468 breast) was greater than 25 µM.
CN(C)CC1C(=O)O[C@H]2[C@H]1CC/C(COC(=O)NCc1ccc(Cn3c(=O)sn(CCCI)c3=O)cc1)=C\CC[C@@]1(C)O[C@@H]21 (stereo partly specified) showed a GI50 (MDA-MB-468 breast) of 0.7 µM and a TGI (MDA-MB-468 breast) of 1.6 µM.
In the case of Oc1ccc(Cl)cc1Sc1cc(Cl)ccc1O, the GI50 (MDA-MB-468 breast) is reported as 3.13 µM and the TGI (MDA-MB-468 breast) is reported as 9.12 µM.
CC(C)c1[nH]nc2c(NCc3ccc(-c4ccccn4)cc3)nc(SCCN)nc12 gave a GI50 (MDA-MB-468 breast) of 0.00335 µM and a TGI (MDA-MB-468 breast) of 0.0127 µM.
Work on CN(C)c1cc2c(Nc3ccc4c(cnn4Cc4ccccc4)c3)ncnc2cn1 yielded a GI50 (MDA-MB-468 breast) of 0.136 µM and a TGI (MDA-MB-468 breast) of 1.16 µM.
In the case of CCN(CC)S(=O)(=O)c1cccc(-c2ccc3c(NC(=O)C4CC4)n[nH]c3c2)c1, the GI50 (MDA-MB-468 breast) is reported as 1.22 µM and the TGI (MDA-MB-468 breast) is reported as greater than 6.25 µM.
Work on COc1ccc(/C=C2\COc3ccc(O)c(O)c3C2=O)cc1OC yielded a GI50 (MDA-MB-468 breast) of 1.58 µM and a TGI (MDA-MB-468 breast) of 4.88 µM.
Molecule O=C1NC(=S)/C(=C/c2cn(-c3ccccc3)nc2-c2ccccc2)S1 has a GI50 (UACC-257 melanoma) of 6.36 µM, a TGI (UACC-257 melanoma) greater than 100 µM and a GI50 (HCT-15 colon) of 4.29 µM. For the same molecule, the TGI (HCT-15 colon) was 33.8 µM, the GI50 (U251 CNS) was 7.49 µM and the TGI (U251 CNS) was greater than 100 µM. For the same molecule, the GI50 (SF-295 CNS) was 8.61 µM, the TGI (SF-295 CNS) was 32.7 µM and the GI50 (NCI-H460 lung) was 4.89 µM. The TGI (NCI-H460 lung) was 26.2 µM, the GI50 (TK-10 renal) was 12.5 µM and the TGI (TK-10 renal) was greater than 100 µM. For the same molecule, the GI50 (786-0 renal) was 4.79 µM, the TGI (786-0 renal) was greater than 100 µM and the GI50 (MCF7 breast) was 4.03 µM. The TGI (MCF7 breast) was greater than 100 µM, the GI50 (SR leukemia) was 6.65 µM and the TGI (SR leukemia) was 32.3 µM. For the same molecule, the GI50 (SK-MEL-28 melanoma) was 5.31 µM, the TGI (SK-MEL-28 melanoma) was greater than 100 µM and the GI50 (HCT-116 colon) was 5.57 µM. It also gave a TGI (HCT-116 colon) greater than 100 µM, a GI50 (HT29 colon) of 9.99 µM and a TGI (HT29 colon) of 37.1 µM. For the same molecule, the GI50 (LOX IMVI melanoma) was 13.4 µM, the TGI (LOX IMVI melanoma) was greater than 100 µM and the GI50 (NCI-H522 lung) was 4.39 µM. For the same molecule, the TGI (NCI-H522 lung) was 19.3 µM, the GI50 (EKVX NSCLC) was 4.1 µM and the TGI (EKVX NSCLC) was greater than 100 µM. It also gave a GI50 (SF-268 CNS) of 6.07 µM, a TGI (SF-268 CNS) greater than 100 µM and a GI50 (HL-60(TB) leukemia) of 3.94 µM. For the same molecule, the TGI (HL-60(TB) leukemia) was 36.6 µM, the GI50 (UACC-62 melanoma) was 3.49 µM and the TGI (UACC-62 melanoma) was 15.3 µM. The GI50 (SF-539 CNS) was 6.5 µM, the TGI (SF-539 CNS) was 21.8 µM and the GI50 (KM12 colon) was 5.8 µM. It also gave a TGI (KM12 colon) of 40.2 µM, a GI50 (NCI/ADR-RES ovarian) of 7.3 µM and a TGI (NCI/ADR-RES ovarian) greater than 100 µM. The GI50 (COLO 205 colon) was 11.9 µM, the TGI (COLO 205 colon) was 32 µM and the GI50 (OVCAR-4 ovarian) was 5.24 µM. For the same molecule, the TGI (OVCAR-4 ovarian) was greater than 100 µM, the GI50 (K-562 leukemia) was 5.38 µM and the TGI (K-562 leukemia) was greater than 100 µM. It also gave a GI50 (HCC-2998 colon) of 10.6 µM, a TGI (HCC-2998 colon) of 44.6 µM and a GI50 (NCI-H23 lung) of 4.86 µM. The TGI (NCI-H23 lung) was 51.6 µM, the GI50 (SN12C renal) was 4.73 µM and the TGI (SN12C renal) was greater than 100 µM. It also gave a GI50 (OVCAR-3 ovarian) of 7.1 µM, a TGI (OVCAR-3 ovarian) of 27.1 µM and a GI50 (CAKI-1 renal) of 9.4 µM. For the same molecule, the TGI (CAKI-1 renal) was greater than 100 µM, the GI50 (BT-549 breast) was 2.65 µM and the TGI (BT-549 breast) was 11.3 µM. The GI50 (MALME-3M melanoma) was 4.85 µM, the TGI (MALME-3M melanoma) was 35.8 µM and the GI50 (SK-OV-3 ovarian) was 6.82 µM. It also gave a TGI (SK-OV-3 ovarian) of 81.2 µM, a GI50 (HOP-92 NSCLC) of 2.3 µM and a TGI (HOP-92 NSCLC) of 9.73 µM. The GI50 (A498 renal) was 5.6 µM, the TGI (A498 renal) was 41.3 µM and the GI50 (NCI-H226 lung) was 13.4 µM. For the same molecule, the TGI (NCI-H226 lung) was greater than 100 µM, the GI50 (OVCAR-8 ovarian) was 16.1 µM and the TGI (OVCAR-8 ovarian) was 80.8 µM. For the same molecule, the GI50 (SW-620 colon) was 9.67 µM, the TGI (SW-620 colon) was greater than 100 µM and the GI50 (M14 melanoma) was 4.82 µM. The TGI (M14 melanoma) was greater than 100 µM, the GI50 (SK-MEL-5 melanoma) was 2.59 µM and the TGI (SK-MEL-5 melanoma) was 7.45 µM. For the same molecule, the GI50 (MDA-MB-435) was 5.49 µM, the TGI (MDA-MB-435) was greater than 100 µM and the GI50 (HS 578T breast) was 5.73 µM. The TGI (HS 578T breast) was 91.6 µM, the GI50 (A549 NSCLC) was 6.74 µM and the TGI (A549 NSCLC) was greater than 100 µM. The GI50 (PC-3 prostate) was 5.76 µM, the TGI (PC-3 prostate) was greater than 100 µM and the GI50 (OVCAR-5 ovarian) was 22 µM. For the same molecule, the TGI (OVCAR-5 ovarian) was greater than 100 µM, the GI50 (MDA-MB-468 breast) was 3.13 µM and the TGI (MDA-MB-468 breast) was 21.8 µM. For the same molecule, the GI50 (T-47D breast) was 4.41 µM, the TGI (T-47D breast) was greater than 100 µM and the GI50 (RXF 393 renal) was 17.1 µM. For the same molecule, the TGI (RXF 393 renal) was 71.6 µM, the GI50 (RPMI-8226 leukemia) was 3.57 µM and the TGI (RPMI-8226 leukemia) was 94.7 µM. The GI50 (CCRF-CEM leukemia) was 4.35 µM, the TGI (CCRF-CEM leukemia) was greater than 100 µM and the GI50 (DU-145 prostate) was 9.48 µM. For the same molecule, the TGI (DU-145 prostate) was greater than 100 µM, the GI50 (IGROV1 ovarian) was 6.46 µM and the TGI (IGROV1 ovarian) was 45.2 µM. The GI50 (SNB-19 CNS) was 4.91 µM, the TGI (SNB-19 CNS) was greater than 100 µM and the GI50 (MOLT-4 leukemia) was 3.91 µM. For the same molecule, the TGI (MOLT-4 leukemia) was 34.4 µM, the GI50 (HOP-62 NSCLC) was 22.8 µM and the TGI (HOP-62 NSCLC) was greater than 100 µM. It also gave a GI50 (ACHN renal) of 8.33 µM and a TGI (ACHN renal) greater than 100 µM.
